Measured values from ChEMBL document CHEMBL5356991, “Naphthyl bearing 1,3,4-thiadiazoleacetamides targeting the parasitic folate pathway as anti-infectious agents: in silico, synthesis, and biological approach” (RSC Med Chem, 2023).

molecular target: T1, Dihydrofolate reductase (Bos taurus, UniProt P00376); assay: Inhibition of bovine liver DHFR incubated for 12 mins in presence of NADPH; details: not given
T1 sequence (P00376 whole entry): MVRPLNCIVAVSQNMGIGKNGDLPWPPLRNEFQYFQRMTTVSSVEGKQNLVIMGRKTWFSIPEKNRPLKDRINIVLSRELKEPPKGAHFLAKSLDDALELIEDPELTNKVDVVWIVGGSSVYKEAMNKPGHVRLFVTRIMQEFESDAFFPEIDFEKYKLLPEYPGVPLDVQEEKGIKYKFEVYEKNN

Row | Structure (SMILES) | IC50 [µM]
1 | O=C(CN1CCN(c2ccccc2O)CC1)Nc1nnc(COc2ccc3ccccc3c2)s1 | 2.5
2 | O=C(CN1CCN(C(c2ccccc2)c2ccccc2)CC1)Nc1nnc(COc2ccc3ccccc3c2)s1 | 1.87
3 | O=C(CN1CCN(c2ccnc3cc(Cl)ccc23)CC1)Nc1nnc(COc2ccc3ccccc3c2)s1 | 2.94

system: not listed separately; assay: Cytotoxicity against human HEK293 cells assessed as cell growth at 50 uM incubated for 48 hrs by MTT assay relative to control; format: toxicity, cell-based; details: read-out: Activity

Row | Structure (SMILES) | viability at 48 h, 50 µM [%]
4 | CCOC(=O)c1cnc2ccccc2c1N1CCN(CC(=O)Nc2nnc(COc3ccc4ccccc4c3)s2)CC1 | 59.8
5 | CN1CCN(CC(=O)Nc2nnc(COc3ccc4ccccc4c3)s2)CC1 | 42.8
6 | Cc1ccc(N2CCN(CC(=O)Nc3nnc(COc4ccc5ccccc5c4)s3)CC2)cc1 | 66.4
7 | O=C(CN1CCN(c2ccccc2O)CC1)Nc1nnc(COc2ccc3ccccc3c2)s1 | 92.9
8 | O=C(CN1CCN(C(c2ccccc2)c2ccccc2)CC1)Nc1nnc(COc2ccc3ccccc3c2)s1 | 94.4
9 | O=C(CN1CCOCC1)Nc1nnc(COc2ccc3ccccc3c2)s1 | 70
10 | O=C(CN1CCN(c2ccnc3cc(Cl)ccc23)CC1)Nc1nnc(COc2ccc3ccccc3c2)s1 | 43.3
11 | COc1ccc(N2CCN(CC(=O)Nc3nnc(COc4ccc5ccccc5c4)s3)CC2)cc1 | 58
12 | O=C(CN1CCCCC1)Nc1nnc(COc2ccc3ccccc3c2)s1 | 86.9
13 | O=C(CN1CCN(c2cc(N3CCOCC3)ncn2)CC1)Nc1nnc(COc2ccc3ccccc3c2)s1 | 87.4
14 | CCN(CC)CCCC(C)Nc1ccnc2cc(Cl)ccc12 (stereo unspecified) [CHLOROQUINE] | 58.5

system: Plasmodium falciparum; assay: Antimalarial activity against chloroquine-resistant Plasmodium falciparum W2 assessed as parasite growth inhibition incubated for 72 hrs by Malstat reagent based LDH assay; format: functional, organism-based; details: W2, 72 h

Row | Structure (SMILES) | IC50 [µM]
15 | CCOC(=O)c1cnc2ccccc2c1N1CCN(CC(=O)Nc2nnc(COc3ccc4ccccc4c3)s2)CC1 | > 10
16 | CN1CCN(CC(=O)Nc2nnc(COc3ccc4ccccc4c3)s2)CC1 | > 10
17 | Cc1ccc(N2CCN(CC(=O)Nc3nnc(COc4ccc5ccccc5c4)s3)CC2)cc1 | > 10
18 | O=C(CN1CCN(c2ccccc2O)CC1)Nc1nnc(COc2ccc3ccccc3c2)s1 | > 10
19 | O=C(CN1CCN(C(c2ccccc2)c2ccccc2)CC1)Nc1nnc(COc2ccc3ccccc3c2)s1 | > 10
20 | O=C(CN1CCOCC1)Nc1nnc(COc2ccc3ccccc3c2)s1 | > 10
21 | O=C(CN1CCN(c2ccnc3cc(Cl)ccc23)CC1)Nc1nnc(COc2ccc3ccccc3c2)s1 | 3.92
22 | COc1ccc(N2CCN(CC(=O)Nc3nnc(COc4ccc5ccccc5c4)s3)CC2)cc1 | > 10
23 | O=C(CN1CCCCC1)Nc1nnc(COc2ccc3ccccc3c2)s1 | > 10
24 | O=C(CN1CCN(c2cc(N3CCOCC3)ncn2)CC1)Nc1nnc(COc2ccc3ccccc3c2)s1 | > 10

system: Plasmodium falciparum; assay: Resistance index, ratio of IC50 for antimalarial activity against chloroquine-resistant Plasmodium falciparum W2 to IC50 for antimalarial activity against chloroquine-sensitive Plasmodium falciparum NF54; format: functional; details: not given

Row | Structure (SMILES) | Ratio IC50
25 | O=C(CN1CCN(c2ccnc3cc(Cl)ccc23)CC1)Nc1nnc(COc2ccc3ccccc3c2)s1 | 0.99

system: not listed separately; assay: Safety index, ratio of IC50 for antimalarial activity against chloroquine-sensitive Plasmodium falciparum NF54 to IC50 for cytotoxicity against human HEK293 cells; format: toxicity, cell-based; details: HEK293 cells versus Plasmodium falciparum NF54, read-out: Ratio IC50

Row | Structure (SMILES) | selectivity ratio
26 | CCOC(=O)c1cnc2ccccc2c1N1CCN(CC(=O)Nc2nnc(COc3ccc4ccccc4c3)s2)CC1 | 1.73
27 | CN1CCN(CC(=O)Nc2nnc(COc3ccc4ccccc4c3)s2)CC1 | 8.85
28 | Cc1ccc(N2CCN(CC(=O)Nc3nnc(COc4ccc5ccccc5c4)s3)CC2)cc1 | 0.79
29 | O=C(CN1CCN(c2ccccc2O)CC1)Nc1nnc(COc2ccc3ccccc3c2)s1 | 14.4
30 | O=C(CN1CCN(C(c2ccccc2)c2ccccc2)CC1)Nc1nnc(COc2ccc3ccccc3c2)s1 | 53.2
31 | O=C(CN1CCOCC1)Nc1nnc(COc2ccc3ccccc3c2)s1 | 6.54
32 | O=C(CN1CCN(c2ccnc3cc(Cl)ccc23)CC1)Nc1nnc(COc2ccc3ccccc3c2)s1 | 9.44
33 | COc1ccc(N2CCN(CC(=O)Nc3nnc(COc4ccc5ccccc5c4)s3)CC2)cc1 | 0.25
34 | O=C(CN1CCCCC1)Nc1nnc(COc2ccc3ccccc3c2)s1 | 2.33
35 | O=C(CN1CCN(c2cc(N3CCOCC3)ncn2)CC1)Nc1nnc(COc2ccc3ccccc3c2)s1 | 0.82

system: not listed separately; assay: Hemolytic activity in human RBC assessed as hemolysis at 12.5 uM incubated for 1 hr by spectrophotometric analysis relative to control; format: toxicity, cell-based, Erythrocyte; details: human red blood cells (erythrocytes), read-out: Activity

Row | Structure (SMILES) | hemolysis at 1 h, 12.5 µM [%]
36 | CCOC(=O)c1cnc2ccccc2c1N1CCN(CC(=O)Nc2nnc(COc3ccc4ccccc4c3)s2)CC1 | < 10
37 | CN1CCN(CC(=O)Nc2nnc(COc3ccc4ccccc4c3)s2)CC1 | < 10
38 | Cc1ccc(N2CCN(CC(=O)Nc3nnc(COc4ccc5ccccc5c4)s3)CC2)cc1 | < 10
39 | O=C(CN1CCN(c2ccccc2O)CC1)Nc1nnc(COc2ccc3ccccc3c2)s1 | < 10
40 | O=C(CN1CCN(C(c2ccccc2)c2ccccc2)CC1)Nc1nnc(COc2ccc3ccccc3c2)s1 | < 10
41 | O=C(CN1CCOCC1)Nc1nnc(COc2ccc3ccccc3c2)s1 | < 10
42 | O=C(CN1CCN(c2ccnc3cc(Cl)ccc23)CC1)Nc1nnc(COc2ccc3ccccc3c2)s1 | < 10
43 | COc1ccc(N2CCN(CC(=O)Nc3nnc(COc4ccc5ccccc5c4)s3)CC2)cc1 | < 10
44 | O=C(CN1CCCCC1)Nc1nnc(COc2ccc3ccccc3c2)s1 | < 10
45 | O=C(CN1CCN(c2cc(N3CCOCC3)ncn2)CC1)Nc1nnc(COc2ccc3ccccc3c2)s1 | < 10

system: not listed separately; assay: Selectivity index, ratio of IC50 for cytotoxicity against African green monkey Vero cells to IC50 for inhibition of bovine liver DHFR; details: not given

Row | Structure (SMILES) | Ratio IC50
46 | O=C(CN1CCN(c2ccccc2O)CC1)Nc1nnc(COc2ccc3ccccc3c2)s1 | 400.881
47 | O=C(CN1CCN(C(c2ccccc2)c2ccccc2)CC1)Nc1nnc(COc2ccc3ccccc3c2)s1 | 535.245
48 | O=C(CN1CCN(c2ccnc3cc(Cl)ccc23)CC1)Nc1nnc(COc2ccc3ccccc3c2)s1 | 340.518

system: Vero; assay: Cytotoxicity against African green monkey Vero cells upto 1000 uM; format: toxicity, cell-based; details: chlorocebus sabaeus

Row | Structure (SMILES) | Activity
49 | O=C(CN1CCN(c2ccccc2O)CC1)Nc1nnc(COc2ccc3ccccc3c2)s1 | Non-Toxic
50 | O=C(CN1CCN(C(c2ccccc2)c2ccccc2)CC1)Nc1nnc(COc2ccc3ccccc3c2)s1 | Non-Toxic
51 | O=C(CN1CCN(c2ccnc3cc(Cl)ccc23)CC1)Nc1nnc(COc2ccc3ccccc3c2)s1 | Non-Toxic

system: Erythrocyte; assay: Hemolytic activity in human RBC assessed as hemolysis at 200 uM incubated for 1 hr by spectrophotometric analysis; format: toxicity, cell-based; details: not given

Row | Structure (SMILES) | Activity
52 | O=C(CN1CCN(c2ccccc2O)CC1)Nc1nnc(COc2ccc3ccccc3c2)s1 | Toxic
53 | O=C(CN1CCN(C(c2ccccc2)c2ccccc2)CC1)Nc1nnc(COc2ccc3ccccc3c2)s1 | Toxic
54 | O=C(CN1CCN(c2ccnc3cc(Cl)ccc23)CC1)Nc1nnc(COc2ccc3ccccc3c2)s1 | Toxic
55 | O=C(CN1CCCCC1)Nc1nnc(COc2ccc3ccccc3c2)s1 | Toxic

system: Erythrocyte; assay: Hemolytic activity in human RBC assessed as hemolysis at 12.5 to 200 uM incubated for 1 hr by spectrophotometric analysis; format: toxicity, cell-based; details: dose 12.5-200 µM

Row | Structure (SMILES) | Activity
56 | CCN(CC)CCCC(C)Nc1ccnc2cc(Cl)ccc12 (stereo unspecified) [CHLOROQUINE] | Toxic

system: Leishmania donovani; assay: Antileishmanial activity against promastigote stage of Leishmania donovani assessed as parasite growth inhibition incubated for 24 hrs by MTT assay; format: functional, organism-based; details: not given

Row | Structure (SMILES) | IC50 [µM]
57 | CCOC(=O)c1cnc2ccccc2c1N1CCN(CC(=O)Nc2nnc(COc3ccc4ccccc4c3)s2)CC1 | 5.32
58 | CN1CCN(CC(=O)Nc2nnc(COc3ccc4ccccc4c3)s2)CC1 | 7.09
59 | Cc1ccc(N2CCN(CC(=O)Nc3nnc(COc4ccc5ccccc5c4)s3)CC2)cc1 | 6.19
60 | O=C(CN1CCN(c2ccccc2O)CC1)Nc1nnc(COc2ccc3ccccc3c2)s1 | 4.34
61 | O=C(CN1CCN(C(c2ccccc2)c2ccccc2)CC1)Nc1nnc(COc2ccc3ccccc3c2)s1 | 3.55
62 | O=C(CN1CCOCC1)Nc1nnc(COc2ccc3ccccc3c2)s1 | 5.94
63 | O=C(CN1CCN(c2ccnc3cc(Cl)ccc23)CC1)Nc1nnc(COc2ccc3ccccc3c2)s1 | 7.2
64 | COc1ccc(N2CCN(CC(=O)Nc3nnc(COc4ccc5ccccc5c4)s3)CC2)cc1 | 5.53
65 | O=C(CN1CCCCC1)Nc1nnc(COc2ccc3ccccc3c2)s1 | 6.71
66 | O=C(CN1CCN(c2cc(N3CCOCC3)ncn2)CC1)Nc1nnc(COc2ccc3ccccc3c2)s1 | 6.61
67 | CCCCCCCCCCCCCCCCOP(=O)([O-])OCC[N+](C)(C)C [MILTEFOSINE] | 0.19

system: not listed separately; assay: Cytotoxicity against human HEK293 cells incubated for 48 hrs by MTT assay; format: toxicity, cell-based; details: not given

Row | Structure (SMILES) | IC50 at 48 h [µM]
68 | CN1CCN(CC(=O)Nc2nnc(COc3ccc4ccccc4c3)s2)CC1 | 69.2
69 | O=C(CN1CCN(c2ccnc3cc(Cl)ccc23)CC1)Nc1nnc(COc2ccc3ccccc3c2)s1 | 70.4
70 | CCN(CC)CCCC(C)Nc1ccnc2cc(Cl)ccc12 (stereo unspecified) [CHLOROQUINE] | 17.2

system: Plasmodium falciparum; assay: Antimalarial activity against chloroquine-sensitive Plasmodium falciparum NF54 assessed as parasite growth inhibition incubated for 72 hrs by Malstat reagent based LDH assay; format: functional, organism-based; details: NF54, 72 h

Row | Structure (SMILES) | IC50 [µM]
71 | CCOC(=O)c1cnc2ccccc2c1N1CCN(CC(=O)Nc2nnc(COc3ccc4ccccc4c3)s2)CC1 | 28.9
72 | CN1CCN(CC(=O)Nc2nnc(COc3ccc4ccccc4c3)s2)CC1 | 7.83
73 | Cc1ccc(N2CCN(CC(=O)Nc3nnc(COc4ccc5ccccc5c4)s3)CC2)cc1 | 63.7
74 | O=C(CN1CCN(c2ccccc2O)CC1)Nc1nnc(COc2ccc3ccccc3c2)s1 | 3.47
75 | O=C(CN1CCN(C(c2ccccc2)c2ccccc2)CC1)Nc1nnc(COc2ccc3ccccc3c2)s1 | 0.94
76 | O=C(CN1CCOCC1)Nc1nnc(COc2ccc3ccccc3c2)s1 | 10.7
77 | O=C(CN1CCN(c2ccnc3cc(Cl)ccc23)CC1)Nc1nnc(COc2ccc3ccccc3c2)s1 | 3.93
78 | COc1ccc(N2CCN(CC(=O)Nc3nnc(COc4ccc5ccccc5c4)s3)CC2)cc1 | > 200
79 | O=C(CN1CCCCC1)Nc1nnc(COc2ccc3ccccc3c2)s1 | 21.5
80 | O=C(CN1CCN(c2cc(N3CCOCC3)ncn2)CC1)Nc1nnc(COc2ccc3ccccc3c2)s1 | 61.3
81 | C=C[C@H]1CN2CC[C@H]1C[C@H]2[C@H](O)c1ccnc2ccc(OC)cc12 [QUININE] | 0.108
